From patent US10160948B2, “Pluripotent embryonic-like stem cells, compositions, methods and uses thereof” (ABT HOLDING COMPANY, priority 1999, dated 2018)

System: phenotypic expression markers (ectodermal, mesodermal, endodermal, embryonic)
Experiment: Immunochemical and histochemical phenotypic analysis of human cell lines incubated with serum + insulin (I) + dexamethasone (D)
Format: cell-based
Method: Additional immunochemical and histochemical studies were performed with a series of human cell lines. Human cells CF-NHDF2 (derived from person dermis) were propogated to various doubling numbers (cell doublings of between 12 and 47), and examined, as above, for multiple induced mesodermal, ectodermal, endodermal and embryonic lineages. Human cells CM-SkM2 and CF-SkM2, were similarly examined, after propogation to 12 cell doublings. TABLES 7-9 provides the results of examination of the human cells CF-NHDF2 at progressive cell doublings, under different growth conditions. TABLE 10 provides the results of examination of the human cells CM-SkM2, and CF-SkM2 at progressive cell doublings, under different growth conditions.
Phenotypic Analysis. The cryopreserved cells were thawed and seeded at 1×10^3 cells per well of 1% gelatinized 96-well plates (Corning, Corning, N.Y.).15,16 The cell lines were incubated with CM only (non-induced) or CM+insulin and/or dexamethasone in a comparison/contrast analysis system to ascertain induced phenotypic expression.7,15 In this assay, insulin accelerates phenotypic expression of lineage-committed progenitor cells but has no effect on the induction of lineage-commitment and subsequent phenotypic expression in pluripotent cells.
Cells were cultured for 30-56 days in CM, CM+[…] insulin, or CM+10^−6M Dexamethasone+/−insulin+1%, 5%, or 10% horse serum. […]

## insulin
  effect on morphology and antigen staining of NHDF2 and PAL3 cells: No change in morphology or change in antigen staining
